pIC50, pKi: −log10 of the molar value. Activity calls are given as the source filed them. No cut-off for these calls is given here.

Experimental findings from ChEMBL document CHEMBL4043148, “Nitro-substituted tetrahydroindolizines and homologs: Design, kinetics, and mechanism of α-glucosidase inhibition” (Bioorg Med Chem Lett, 2017) are described below.

Experiment [1] in a line: Inhibition of Saccharomyces cerevisiae alpha-glucosidase using 4-nitrophenyl alpha-D-glucopyranoside as substrate preincubated for 5 mins followed by substrate addition measured after 10 mins.
The test system of experiment [2] is Saccharomyces cerevisiae. The experiment is described as follows: Inhibition of Saccharomyces cerevisiae alpha-glucosidase using 4-nitrophenyl alpha-D-glucopyranoside as substrate at 300 uM preincubated for 5 mins followed by substrate addition measured after 10 mins.
Experiment [3] has as its system Saccharomyces cerevisiae. In words: Inhibition of Saccharomyces cerevisiae alpha-glucosidase using 4-nitrophenyl alpha-D-glucopyranoside as substrate at 150 uM preincubated for 5 mins followed by substrate addition measured after 10 mins.
The subject of experiment [4] is Saccharomyces cerevisiae. In words: Potency index, ratio of 1-deoxynojirimycin IC50 to compound IC50 for Saccharomyces cerevisiae alpha-glucosidase.
Experiment [5] concerns Saccharomyces cerevisiae. In words: Mixed inhibition of Saccharomyces cerevisiae alpha-glucosidase assessed as Vmax for substrate up to 10 uM in presence of varying concentrations of 4-nitrophenyl alpha-D-glucopyranoside after 2 mins by Lineweaver-Burk plot analysis (reference value: 23.8 nmol/min/ml).
In experiment [6] the test system is Saccharomyces cerevisiae. In words: Reversible inhibition of Saccharomyces cerevisiae alpha-glucosidase up to 15 uM using 4-nitrophenyl alpha-D-glucopyranoside as substrate after 2 mins by Lineweaver-Burk plot analysis.
The nature of experiment [7]: Mixed inhibition of Saccharomyces cerevisiae alpha-glucosidase assessed as enzyme inhibitor substrate constant up to 12.5 uM using 4-nitrophenyl alpha-D-glucopyranoside as substrate after 2 mins by Lineweaver-Burk plot analysis.
Experiment [8] has as its system Saccharomyces cerevisiae. In words: Mixed inhibition of Saccharomyces cerevisiae alpha-glucosidase assessed as free-enzyme inhibition constant up to 12.5 uM using 4-nitrophenyl alpha-D-glucopyranoside as substrate after 2 mins by Lineweaver-Burk plot analysis.
Experiment [9] concerns Saccharomyces cerevisiae. The experiment is described as follows: Mixed inhibition of Saccharomyces cerevisiae alpha-glucosidase assessed as Km for substrate up to 10 uM in presence of varying concentrations of 4-nitrophenyl alpha-D-glucopyranoside after 2 mins by Lineweaver-Burk plot analysis (reference value: 0.092 mM).

As a reminder, the pIC50 is the IC50 on a negative log10 scale, so that one unit is a factor of ten. Turning to `COC(=O)C(c1c([N+](=O)[O-])cn2c1CCCCC2)S(C)(=O)=O` (stereo not drawn), in experiment [1], the pIC50 was 3.91.
The same measure, in the same setting: the value for `CS(=O)(=O)Cc1c([N+](=O)[O-])cn2c1CCCC2` was 4.14.
The term inhibition denotes the drop in the measured response relative to a control, in per cent. In experiment [1], `CS(=O)(=O)Cc1c([N+](=O)[O-])cn2c1CCCCC2` showed a pIC50 below 3.52. For the same compound, the inhibition entry with Saccharomyces cerevisiae [2] is “inactive”.
With `COC(=O)C(c1c([N+](=O)[O-])cn2c1CCCC2)S(=O)(=O)Cc1ccccc1` (stereo not drawn), in experiment [1], the pIC50 is 4.70.
Regarding `CS(=O)(=O)Cc1c([N+](=O)[O-])cn2c1CCC2`, the negative logarithm of the IC50 (pIC50) in experiment [1] was below 3.82. For the same compound, the inhibition with Saccharomyces cerevisiae [3] was 46%.
A word on the Vmax: it is the top rate of the reaction or transport when substrate is in excess. For orientation: pKi means the negative decadic logarithm of the Ki, by convention in mol/L. What is called Km is the concentration of substrate that gives half-maximal velocity. For `COC(=O)C(c1c([N+](=O)[O-])cn2c1CCCC2)S(C)(=O)=O` (stereo not drawn), in the experiment on Saccharomyces cerevisiae [4], the Ratio IC50 amounted to 25. The compound also had a pIC50 in experiment [1] of 5.10. In addition, the Vmax in the experiment with Saccharomyces cerevisiae [5] is 10.7 nmol/min/mL. Moreover, the inhibition entry with Saccharomyces cerevisiae [6] was “Active”. Besides, the pKi in [7] was 5.12. Moreover, the fKi in the experiment on Saccharomyces cerevisiae [8] was 3.6 µM. For the same compound, the Km with Saccharomyces cerevisiae [9] came to 140 µM.
For `OC[C@H]1NC[C@H](O)[C@@H](O)[C@@H]1O` [DUVOGLUSTAT], the negative-log IC50 (pIC50) in experiment [1] is 3.69.
As to `O=[N+]([O-])c1cn2c(c1CS(=O)(=O)Cc1ccccc1)CCCC2`, in experiment [1], the pIC50 is 4.54.
With `COC(=O)C(c1c([N+](=O)[O-])cn2c1CCCC2)S(=O)(=O)Cc1ccc(C)cc1` (stereo not drawn), in experiment [1], the pIC50 is 4.19.
Compound `COC(=O)C(c1c([N+](=O)[O-])cn2c1CCC2)S(C)(=O)=O` (stereo not drawn) showed a pIC50 in [1] of 4.32.
